Test [1] concerns the target S1R. Particulars: cited from earlier work.
The target of test [2] is empopamil binding protein (EBP). Also noted: method as in PMID 11377189. To be noted: cited from earlier work.
Test [3] deals with Kappa opioid receptor. Also noted: method as in PMID 16125682. To be noted: cited from earlier work.
For test [4], the system named is retinal ganglion cells (RGCs). Particulars: for RGC loss (%): OD vs OS eye, mean ± SEM. Here is the method: Hypertonic saline injection (HSI) was performed on day 0 and day 7 into the episcleral veins of the right eye of pigmented Brown Norway rats in order to create a sustained increase of IOP.
Over the course of the study, animals were clinically evaluated daily, and IOP and body weight measured weekly (Fig. 1a).
The number of RGCs was quantified using immunofluorescent staining for the RGC marker brain-specific homeobox/POU domain protein 3A (Brn-3a), followed by image analysis. RGCs were counted in one medial and one distal area in each retinal quadrant, up to eight regions per retina (Fig. 1c, Supp Table 4). The percent of RGC loss was calculated by comparing the number of RGC counts per retina in the OD eye to that in the OS eye. […] Rats were sedated with ketamine and xylazine (40–80 and 5–10 mg/kg, respectively), kept warm and eyes moist to avoid desiccation during the procedure. Eye surface was treated with erythromycin (0.5%). On Days 0 and 7, hypertonic saline solution (250 μL, NaCl, 1.8–2.0 M) was injected into the limbal vascular plexus via different episcleral veins in the OHT eye.
Eyes were immediately enucleated following CO2 euthanasia and fixed in paraformaldehyde (PFA, 4%) at 4 °C for 24 h, then dissected in PBS. Retinas were permeabilized in PBS + 0.5% Triton X-100 for 15 min, frozen at − 80 °C for 15 min, then rinsed in PBS-0.5% Triton. […] Four radial cuts were made in the retina and it was flat-mounted. Two regions of interest (medial and distal) were acquired in each quadrant with fluorescent microscopy, and RGCs counted using ImageJ.

The test system of test [5] is mouse striatal neuronal cultures. To be noted: 1 μM, 24 h. The procedure:
Previous studies have shown a regulatory role of the S1R in mitochondrial function in retinal ganglion cells under stress[36]–[39]. […] (b) Quantification of OCR rate. […] Mitochondrial membrane potential was measured in isolated striatal mitochondria using Rhodamine123 (d) and quantified (e). […] Data are the mean ± SEM. All experiments were run in triplicates. *p < 0.05, **p < 0.01 by non-parametric Kruskal–Wallis test or Mann–Whitney test (in e).
Striatal neurons were isolated as previously described[78] from embryos at gestational day 16–17. […] Pridopidine was added for 24 h.

Test [6] has as its system isolated striatal mitochondria. Particulars: 30 mg/kg daily for 45 days; p = 0.0013. The procedure:
(§1) (b) Quantification of OCR rate. […] Mitochondrial membrane potential was measured in isolated striatal mitochondria using Rhodamine123 (d) and quantified (e). […] Data are the mean ± SEM. All experiments were run in triplicates. *p < 0.05, **p < 0.01 by non-parametric Kruskal–Wallis test or Mann–Whitney test (in e).

Test [7] relates to striatal neurons. Particulars: 1 μM, 24 h; NMDA 10 µM + glycine 20 µM 15 min; p = 0.0072. Here is the method: as §1
Striatal neurons were isolated as previously described[78] from embryos at gestational day 16–17.

Test [8] relates to retinal ganglion cells (RGCs). To be noted: for Loss of RBPMS-positive RGCs, lasered vs control eye (difference): 14 days; for Number of RGCs per retinal area, mean: 125/55 criterion. The procedure: (§2) The laser coagulation (LC) model of experimental glaucoma was utilized in Wistar rats. Additional benefits of using this model are avoiding idiosyncratic features inherent to a single model and increasing the likelihood of future translatability to human glaucoma[28],[29]. Both models utilize elevation of IOP, but to different degrees and with different time courses. Unilateral induction of IOP elevation was performed twice, at day 0 and day 7. […] IOP was measured at baseline, and after laser photocoagulation on days 1, 4, 7, 8, and 14 (Fig. 3a). At the end of the study, RGC numbers were assessed by immunostaining (Fig. 3b).
The number of RGCs was quantified using immunofluorescent staining for RNA-binding protein with multiple splicing (RBPMS), an RGC-specific marker, followed by stereological analysis of the entire retina[30] (Fig. 3c).
IOP was measured with a TonoLab tonometer.
Compounds were administered daily by oral gavage. On day 14 rats were sacrificed by transcardial perfusion, first with 0.9% NaCl solution, then with 4% PFA in 0.1 M phosphate buffer, pH 7.4. Eyes and optic nerves were collected for immunohistochemical analysis.
Retinal flat-mounts were immunostained with rabbit anti-RBPMS (PhosphoSolutions) and DAPI nuclear stain. Total number of RBPMS-positive cells was estimated using stereology as previously described.

Test [9] has as its system human lymphoblasts. Particulars: 5 μM pretreatment 24 h; H2O2 0.1 mM 6 h; p < 0.0001. The procedure: (§3) ROS levels were quantified by co-staining with CellRox and DAPI. (a) Representative image and (b) quantification. […] Data is the mean ± SEM. *p < 0.05, ***p < 0.001, ****p < 0.0001 by two-way ANOVA with a Tukey’s multiple comparisons in (b), by non-parametric Mann–Whitney in (d), or Kruskal–Wallis test in (c) and (e). Full-length blots are presented in Supplementary Fig. 2.
(§4) Lymphoblasts (Corriel Institute, GM02174) were grown in RPMI medium containing 10% FBS, 2 mM L-glutamax, and 100 U/mL penicillin–streptomycin and passaged every 5–6 days. […] S1R knockdown was achieved using S1R-directed siRNA duplexes (Origene, cat no: SR426072). Transfection with Polyplus JETPRIME transfection protocol was performed 48 h before experiments. S1R knockdown was assessed by immunoblot.

Test [10] concerns human lymphoblasts. Particulars: 5 µM, 24 h. Here is the method:
as §3
Mitochondrial function was then assessed with the MMP-dependent probe TMRE (tetramethylrhodamine ethyl ester).
as §4

The test system of test [11] is optic nerve axons. Particulars: for Loss of optic nerve axons vs. control eye (difference): 14 days; for Number of optic nerve axons, mean: 125/55 criterion. The procedure: as §2
Neuroprotective preservation of visual function in glaucoma and other optic neuropathies depends not only on preservation of cell bodies, but also on maintaining connectivity between the eye and the brain. Connectivity is preserved by protecting RGC axons[31]–[33], i.e. axoprotection. To study this, the number of optic nerve axons per optic nerve area was compared between different treatment groups (Fig. 4a,b). […] Compounds were administered daily by oral gavage. On day 14 rats were sacrificed by transcardial perfusion, first with 0.9% NaCl solution, then with 4% PFA in 0.1 M phosphate buffer, pH 7.4. Eyes and optic nerves were collected for immunohistochemical analysis.
Optic nerves were postfixed in 4% PFA (in 0.1 M phosphate buffer, pH 7.4), placed in 1% osmium, dehydrated in ascending alcohol concentrations, and placed in 1% uranyl acetate in 100% ethanol for 1 h[76],[77]. Optic nerves were embedded in epoxy resin mixture at 60 °C for 48 h and 1 µm sections prepared. Axon number was estimated using stereology, as previously described.

Structures are written as SMILES. Structures can show the parent of a compound that is named as a salt. Where two headings read alike, the source gives them in different places.

In general, Ki refers to the equilibrium dissociation constant of an inhibitor or competing ligand from its target. Turning to `COc1ccc(CCN2CCN(CCCc3ccccc3)CC2)cc1OC` [SA4503, cutamesine dihydrochloride, reference compound], the inhibitory constant (Ki) in test [1] was 17.4 nM; in test [2], 1.72 nM.
For the compound `CC(C)=CCN1CC[C@]2(C)c3cc(O)ccc3C[C@H]1[C@H]2C` [PTZ, (+)pentazocine], the inhibitory constant (Ki) in [3] is 2.2 nM.
For `CCCN1CCC(c2cccc(S(C)(=O)=O)c2)CC1` [Pridopidine], the “RGC loss (%)” value in test [4] (3 mg/kg daily oral gavage day 1-41) came out at 25 ± 7%; in [4] (30 mg/kg daily oral gavage day 1-41) it was 21 ± 6%; in test [4] (60 mg/kg daily oral gavage day 1-41) it was 7 ± 9%. Further, the “Mean RGC count/animal” value in test [4] (3 mg/kg, OD eye) was 105.25; in [4] (3 mg/kg, OS eye), 144.75; in test [4] (30 mg/kg, OD eye) it was 122.78; in test [4] (30 mg/kg, OS eye) it was 158.56; in [4] (60 mg/kg, OD eye), 116.50; in [4] (60 mg/kg, OS eye), 130.40. The “RGC neuroprotection compared to vehicle control” value is 50% in test [4] (30 mg/kg, p = 0.019) and 83% in test [4] (60 mg/kg, p = 0.005). Also, the ATP production result in test [5] (p = 0.0015) is “significantly increases”. For the same compound, the Maximal mitochondrial respiration entry in [5] (p = 0.0061) is listed as “significantly increases”. In addition, in test [5] (p = 0.0082), the Basal mitochondrial respiration entry was “significantly increases”. The Ki in test [1] is 57 nM. In addition, in test [6], the “MMP in isolated mitochondria from treated mice” value is recorded as “increase in MMP”. Besides, the “Mitochondrial membrane potential (MMP) after NMDA plus glycine” value in test [7] is recorded as “rescues the decrease in MMP”. For the same compound, the “Loss of RBPMS-positive RGCs, lasered vs control eye (difference)” value in test [8] (3 mg/kg daily oral) is listed as 5.2%; in [8] (30 mg/kg daily oral), 7.7%; in test [8] (60 mg/kg daily oral), 13.9%. The “Number of RGCs per retinal area, mean” value turned out to be 1404 in test [8] (3 mg/kg, control eye); 1315 in test [8] (3 mg/kg, lasered eye); 1444 in test [8] (30 mg/kg, control eye); 1336 in [8] (30 mg/kg, lasered eye); 1417 in test [8] (60 mg/kg, control eye); 1198 in [8] (60 mg/kg, lasered eye). In addition, the “H2O2-induced ROS production (CellRox staining)” value in test [9] is listed as “significantly ameliorated”. The “H2O2-induced reduction of MMP (TMRE)” value in [10] (S1R genetically silenced with siRNA) is recorded as “unable to rescue MMP”; in [10] (S1R-expressing cells, p = 0.0002), “rescues this effect”. The “Axoprotection of optic nerves compared to the vehicle group” value was determined as 69% in test [11] (3 mg/kg), 45% in test [11] (30 mg/kg) and 74% in [11] (60 mg/kg). Moreover, the “Loss of optic nerve axons vs. control eye (difference)” value in [11] (3 mg/kg daily oral, p = 0.006) was 8.6%; in test [11] (30 mg/kg daily oral, p = 0.04) it was 15%; in test [11] (60 mg/kg daily oral, p = 0.002), 7.6%. Besides, the “Number of optic nerve axons, mean” value in [11] (3 mg/kg, control eye) came to 394; in test [11] (3 mg/kg, lasered eye) it was 358; in test [11] (30 mg/kg, control eye), 433; in test [11] (30 mg/kg, lasered eye), 363; in test [11] (60 mg/kg, control eye), 395; in test [11] (60 mg/kg, lasered eye) it was 365.
